Measurements: US20240342111A1, “ISOMER-SPECIFIC NEUROPROTECTIVE EFFECT OF NATURAL RESERVATROL” (priority 2021, published 2024)

Experiments:
Rat cortical neurons = assay: MPP+ toxicity (mitochondrial inhibition), cell viability; format: cell-based
[1] = system: Rat cortical neurons transfected with TyrRS siRNA; assay: TyrRS siRNA knockdown, then excitotoxic NMDA, MTT assay; format: cell-based; settings: 24 hours
Experimental: Cells viability was assessed using MTT assay. […] Cells were then exposed to excitotoxic NMDA (500 μM for 5 minutes), and viability was assessed using MTT assay after 24 hours.
Primary cortical neuron cultures were obtained from E18 Sprague Dawley rats' cortices, which were dissected in Hibernate E (BrainBits) and dissociated using the Neural Tissue Dissociation kit (Miltenyi Biotec). For this, minced cortices were incubated in a pre-warmed enzyme mix at 37° C. for 15 min; tissues were then triturated and strained using a 40 μm cell strainer. After washing and centrifugation, neurons were seeded in 50 μg/ml poly-D-Lysine (Sigma Aldrich) coated tissue culture plates. NBActive-1 medium (BrainBits) supplemented with 100 U/ml of Penicillin-Streptomycin (Life Technologies), 2 mM L-Glutamine (Life Technologies), and 1 X N21 supplement (R&D Systems) was used as culture medium. Control (AM4635), TyrRS (s443), PARP1 (s130207) siRNA for transfection were obtained from Invitrogen. On 5 DIV, rat cortical neurons were transfected with 75 nM control or TyrRS siRNA using Dharmafect 3 Transfection Reagent. A second transfection was done two days later using 75 nM of TyrRS siRNA, followed by cell collection or assays after another 48 hours. For PARP1 siRNA, on 7 DIV, neurons were transfected with 75 nM siRNA for both control and PARP1 siRNA.
Rat cortical neurons (DIV 10-11) were exposed to different treatments after seeding 20,000 cells/well in 96-well plates. Cell viability was then assessed at 48 hours after the initial exposure to NMDA. 3-[4,5-dimethylthiazole-2-yl]-2,5-diphenyltetrazolium bromide (MTT) assays were used to assess change in cell viability. Cultured rat cortical neurons were incubated with MTT (0.5 mg/mL). […] The percentage of MTT reduced as measured by the difference between the absorbances at 570 nm read in a spectrophotometer (Spectramax 190R Molecular Devices, UK). The percentage of reduction of MTT was calculated comparing the difference of the absorbance at 570 of each sample. […]

TyrRS = assay: Immunostaining of neuronal TyrRS under neurotoxic agents (NMDA, MPP+); format: cell-based, rat; settings: 50 μM in combination with 50 μM NMDA or 100 μM MPP+, 4 hours
PARP1 = assay: Immunoblot for auto-PARylation of PARP1; format: cell-based, rat; settings: 15 minutes
XRCC1 = assay: Immunoblot for DNA repair protein XRCC1; format: cell-based, rat; settings: 5-50 μM, 4 hours
Description: (§1) Ac-K56-H3 is a marker of genomic stability, see Driscoll, R., Hudson, A. & Jackson, S. P. Yeast Rtt109 promotes genome stability by acetylating histone H3 on lysine 56. Science 315, 649-652, doi:10.1126/science.1135862 (2007), and DNA damage, see Tjeertes, J. V., Miller, K. M. & Jackson, S. P. Screen for DNA-damage-responsive histone modifications identifies H3K9Ac and H3K56Ac in human cells. EMBO J 28, 1878-1889, doi:10.1038/emboj.2009.119 (2009), and inhibition of PARP1 causes the downregulation of RAD51, see Hegan, D. C. et al. Inhibition of poly(ADP-ribose) polymerase down-regulates BRCA1 and RAD51 in a pathway mediated by E2F4 and p130. […] The western blot images of the protein levels of HPF1 was quantified using ImageJ.
(§2) Cultured neurons (DIV 9-10) were washed once with cold 1×PBS and lysed in cell lysis buffer (20 mM Tris-HCl (pH 7.5), 150 mM NaCl, 1 mM Na2EDTA, 1 mM EGTA, 1% Triton, 2.5 mM sodium pyrophosphate, 1 mM beta-glycerophosphate, 1 mM Na3VO4, 1 μg/ml leupeptin supplemented with protease inhibitor). […] Lysates were quantified using Bio-Rad Protein Assay, and an equal amount of protein was loaded onto a 4 to 12% gradient gel (NuPAGE-Invitrogen). […] Quantification for the western blots was done using ImageJ (Version 1.53c).

Ligase IV = assay: Immunoblot for DNA repair protein Ligase IV; format: cell-based, rat; settings: 5-50 μM, 4 hours
Description: as §1, §2

γ-H2AX foci = assay: Immunostaining of DNA damage marker pSer139-H2AX (γ-H2AX) foci; format: cell-based, rat; settings: 24 hours; for Aβ-mediated accumulation of γ-H2AX foci: 50 μM in combination with Aβ 50 nM; for γ-H2AX foci: alone, 50 μM
pSer10-H3 = assay: Immunostaining of pSer10-H3 (ADP-ribosylation dependent DNA repair marker); format: cell-based, rat; settings: pre-treated 50 μM 16 hours, then Aβ 50 nM 24 hours
Description: as §1, with “p130. Proc Natl Acad Sci U S A 107, 2201-2206, doi:10.1073/pnas.0904783107 (2010), and induces neurotoxicity, see Diaz-Hernandez, J. I., Moncada, S., Bolanos, J. P. & Almeida, A. Poly(ADP-ribose) polymerase-1 protects neurons against apoptosis induced by oxidative stress. Cell Death Differ 14, 1211-1221, doi:10.1038/sj.cdd.4402117 (2007) and Midorikawa, R., Takei, Y. & Hirokawa, N. KIF4 motor regulates activity-dependent neuronal survival by suppressing PARP-1 enzymatic activity. Cell 125, 371-383, doi:10.1016/j.cell.2006.02.039 (2006).” for “p130.”
Coverslips were then mounted using DAPI (4′,6-diamidino-2-phenylindole)-supplemented mounting medium, Prolong Gold Antifade (Invitrogen) imaged with Leica DMI6000 epifluorescent microscope at 63×magnification.

GSK3β = assay: Immunoblot for inhibitory GSK3β phosphorylation; format: cell-based, rat; settings: 16 hours
tau = assay: Immunostaining of phospho-tau (pSer404-tau); format: cell-based, rat; settings: 25 μM, 16 hours

Row | Compound | protection against MPP+ toxicity (cell viability) (Rat cortical neurons; 10 μM MPP, pre-treatment 50 μM for 16 hours, viability after 48 hours) | effect of TyrRS knockdown on viability under excitotoxic NMDA ([1]; cis-RSV 50 μM) | neurotoxicity-mediated downregulation of neuronal TyrRS (TyrRS) | auto-PARylation of PARP1 (PARP1; cis-RSV) | XRCC1 protein levels (XRCC1) | ligase IV protein levels (Ligase IV) | Aβ-mediated accumulation of γ-H2AX foci (γ-H2AX foci) | γ-H2AX foci (γ-H2AX foci) | pSer10-H3 levels (pSer10-H3) | GSK3β activity via inhibitory phosphorylation (pSer9) (GSK3β) | phosphorylation level of tau (p-tau, pSer404) (tau) | neurotoxicity by itself (Rat cortical neurons; high dose 50 μM, no toxin) | effect of TyrRS knockdown on viability under excitotoxic NMDA ([1]; low dose trans-RSV 5, 10 μM) | effect of TyrRS knockdown on toxic effects under excitotoxic NMDA ([1]; trans-RSV 50 μM) | auto-PARylation of PARP1 (PARP1; higher dose ≥25 μM) | auto-PARylation of PARP1 (PARP1; low dose 5 μM)
1 | Oc1ccc(/C=C\c2cc(O)cc(O)c2)cc1 [cis-RSV, cis-resveratrol] | protects against MPP toxicity | blunted the neuroprotective effect | protected against the downregulation of neuronal TyrRS | stimulated the auto-PARylation of PARP1 | upregulated them | upregulated them | rescued A β-mediated accumulation of γ-H2AX foci | downregulated the accumulation of γ-H2AX foci | reduced pSer10-H3 levels | inhibited GSK3β through the upregulation of the inhibitory phosphorylation (pSer9) | significantly downregulated the phosphorylation level of tau (p-tau) | – | – | – | – | –
2 | Oc1ccc(/C=C/c2cc(O)cc(O)c2)cc1 [trans-RSV, trans-resveratrol] | – | – | exacerbated the downregulation | – | downregulated the protein levels | downregulated the protein levels | exacerbated the accumulation of γ-H2AX foci | caused the accumulation of γ-H2AX foci | upregulation | activated GSK3β by downregulating the levels of pSer9 | significantly upregulated the level of p-tau | neurotoxic | blunted the neuroprotective effect | exacerbated the toxic effects | downregulated the auto-PARylation of PARP1 | stimulated the auto-PARylation of PARP1
